Assay: Water solubility of solid halogenated hydantoins and halogen dissolved in a saturated solution
Type: physicochemical
Conditions: Table II; for Saturated Solution, amount of halogen dissolved: saturated solution in water

| SMILES | Saturated Solution, amount of halogen dissolved | Solubility (water) |
| --- | --- | --- |
| CC1(C)C(=O)N(Cl)C(=O)N1Br [Bromo-chlorodimethylhydantoin, bromochlorodimethylhydantoin] | 825 mg/L as Cl2 | 0.15% |
| CC1(C)C(=O)N(Br)C(=O)N1Br [Dibromodimethylhydantion, 1,3-dibromo-5,5-dimethylhydantoin] | 542 mg/L as Cl2 | – |

From patent US5641520A, “Halogen compositions for water treatment” (priority 1995, dated 1997)
